{"source": "patent US6630331B1", "about": "“Herbicides test method” (Hoechst Schering AgrEvo GmbH, priority 1997, dated 2003)", "molecules": {"B1": {"name": "recombinant Lotus pantothenate synthetase (Lotus japonicus) (protein)", "chain": "PMVISDKDEMRKWSRSMRSQGKLIALVPTMGFLHEGHLSLVRDAHNHADLVAVSIYVNPGQFSPTEDLSAYPSDFQGDLQKLMSVPGGVDVVFHPHNLYDYGGDGGDAVAECGGDGVVSCVDRRSGFGHETWVRAEKLEKPLCGKSRPVFFRGVATIVTKLFNIVEPDVAVFGKKDYQQWKIIQRMVRDLDFSIKVIGSEVIREKDGLAMSSRNVYLSPEEREKAVSINKSLFRAKSAAEDGQIHCEKLINLVVQSITEAGGRIDYAEIVDQNNLEKVEWIKGPVVFCVSAWFGKARLIDNIEINL"}}, "key": {"[1]": {"target": "T1, recombinant Lotus pantothenate synthetase (Lotus japonicus, UniProt O24035)", "test": "Activity of recombinant Lotus pantothenate synthetase in the presence of potential effectors", "assay_type": "biochemical", "set-up": "the processed recombinant protein (3-proline through 308-leucine) has a theoretical mass of 34,037.7 Da; made in house; host or cells: E. coli AT1371 (panC) transformed with pSKL", "settings": "for Final activity [%]: effector 1 mM, pantoate 0.1 mM, β-alanine 1.0 mM, % of activity without effector", "procedure": "2. The preferred assay mixture to measure the pyrophosphate liberated in the PS reaction after its conversion with inorganic pyrophosphatase to inorganic phosphate comprises 100 μmol Tris.HCl (pH 8.0), 10 μmol MgSO4, 5 μmol ATP, 10 μmol […], […], 1.0 unit […] After a suitable incubation period the PS reaction is terminated either\n(§1) a) by the addition of 100 μlof a reagent mixture comprising 62.3 µg malachite green hydrochloride, 1.9 mg ammoniumheptamolybdate and 0.5% (v/v) of a suitable detergent (for example Triton X-100, Tween-80 or Tergitol NPX) in 1.88 N hydrochloric acid. The resulting colour complex is stabilised by the addition after 1 minute of 50 μl of a 26% (w/v) solution of trisodium citrate dihydrate in water and after an additional 45 minutes incubation at room temperature the intensity of the colour complex is determined by measuring the extinction at 620 nm. The amount of inorganic phosphate liberated in the PS reaction is determined by reference to a standard curve generated from suitable amounts of inorganic phosphate by using the difference of extinction at 620 nm between a complete PS assay mixture and a PS assay mixture lacking pantoate. Since there are 2 molecules of inorganic phosphate liberated for every molecule of pyrophosphate formed in the PS reaction, one unit of PS activity is defined as the amount of enzyme producing 2 nmoles of inorganic phosphate per minute, and specific activity is expressed as units per milligram of protein; or\nAmong these compounds are the intermediates of pantothenate biosynthesis as well as coenzyme A. As coenzyme A plays a prominent role in fatty acid synthesis and degradation, various acyl forms of coenzyme A and free fatty acids were also included. […] Table 7 lists the compounds tried and their effect on PS activity which is expressed percentage of activity in an assay without additions."}, "[2]": {"target": "T2, recombinant L. japonicus pantothenate synthetase (Lotus japonicus, UniProt O24035)", "T2 construct": "the processed recombinant protein (3-proline through 308-leucine) has a theoretical mass of 34,037.7 Da; made in house; host or cells: E. coli AT1371 (panC) transformed with pSKL", "T2 sequence (O24035 3-308)": "B1 chain", "test": "Substrate specificity of recombinant L. japonicus pantothenate synthetase", "assay_type": "biochemical", "settings": "for yield (%): relative to standard assay; for inhibition: analogue at 10-fold excess over pantoate", "procedure": "(§2) 2. The preferred assay mixture to measure the pyrophosphate liberated in the PS reaction after its conversion with inorganic pyrophosphatase to inorganic phosphate comprises 100 μmol Tris.HCl (pH 8.0), 10 μmol MgSO4, 5 μmol ATP, 10 μmol […], 0.5 μmol pantoate, 1.0 unit yeast inorganic pyrophosphatase and pantothenate synthetase in a total volume of 100 μl. After a suitable incubation period the PS reaction is terminated either\nas §1, with “protein; or […]” for “protein; or”"}, "[3]": {"target": "T1, recombinant Lotus pantothenate synthetase", "test": "Steady state kinetics of recombinant Lotus pantothenate synthetase", "procedure": "as §2, §1\nKm and Vmax constants for pantoate and […] were determined by measuring the effect of substrate concentration on the reaction rate."}, "purified E. coli PS": {"target": "purified E. coli PS (Escherichia coli, UniProt P31663)", "sequence (P31663 whole entry)": "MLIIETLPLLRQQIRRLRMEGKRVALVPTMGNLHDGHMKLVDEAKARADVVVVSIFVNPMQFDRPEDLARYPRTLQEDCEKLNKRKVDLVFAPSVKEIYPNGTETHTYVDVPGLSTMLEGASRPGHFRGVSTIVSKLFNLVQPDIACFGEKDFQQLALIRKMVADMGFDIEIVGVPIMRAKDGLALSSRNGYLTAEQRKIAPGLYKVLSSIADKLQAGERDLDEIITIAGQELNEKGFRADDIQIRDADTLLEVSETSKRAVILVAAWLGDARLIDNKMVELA", "settings": "cited from earlier work"}, "[4]": {"substrate": "NCCC(=O)O", "test": "purified protein, by the assay type", "settings": "pantoate at 0.5 mM const., pH 8.0"}, "[5]": {"substrate": "CC(C)(CO)[C@@H](O)C(=O)O", "test": "purified protein, by the assay type", "settings": "pH 8.0", "description": "Km and Vmax constants for pantoate and ⊖-alanine were determined by measuring the effect of substrate concentration on the reaction rate."}, "[6]": {"settings": "analogue 1.0 mM added to pantoate 0.1 mM and β-alanine 1 mM"}, "[7]": {"settings": "analogue 1.0 mM in place of pantoate, β-alanine 1 mM"}, "[8]": {"settings": "analogue 10 mM in place of pantoate, β-alanine 1 mM"}, "[9]": {"settings": "other: Eadie-Hofstee (EH), β-alanine at 20 mM const."}, "[10]": {"settings": "other: Lineweaver-Burk (LB), β-alanine at 20 mM const."}, "[11]": {"settings": "other: fit of rate equation for uncompetitive substrate inhibition"}}, "data": [{"molecule": "CC(=O)SCCNC(=O)CCNC(=O)[C@H](O)C(C)(C)COP(=O)(O)OP(=O)(O)OC[C@H]1O[C@@H](n2cnc3c(N)ncnc32)[C@H](O)[C@@H]1OP(=O)(O)O", "note": "[Acetyl-coA]", "values": [{"measurement": "activity at 100 µM", "setting": "[1]; read-out: Final activity [%]", "result": 93, "unit": "%"}]}, {"molecule": "CC(C)(COP(=O)(O)OP(=O)(O)OC[C@H]1O[C@@H](n2cnc3c(N)ncnc32)[C@H](O)[C@@H]1OP(=O)(O)O)[C@@H](O)C(=O)NCCC(=O)NCCS", "note": "[CoenzymeA]", "values": [{"measurement": "activity at 100 µM", "setting": "[1]; read-out: Final activity [%]", "result": 100, "unit": "%"}, {"measurement": "activity at 200 µM", "setting": "[1]; read-out: Final activity [%]", "result": 106, "unit": "%"}, {"measurement": "activity at 1000 µM", "setting": "[1]; read-out: Final activity [%]", "result": 109, "unit": "%"}]}, {"molecule": "CC(C)(CO)C(=O)C(=O)O", "note": "[Ketopantoate, ketopantoate]", "values": [{"measurement": "activity as substrate in the place of pantoate", "setting": "[2]", "result": "not active as substrates"}, {"measurement": "activity (units)", "setting": "[2]; [6]", "result": 12.18, "unit": "units"}, {"measurement": "yield (%)", "setting": "[2]; [6]", "result": 97, "unit": "%"}, {"measurement": "activity (units)", "setting": "[2]; [7]", "result": 0, "unit": "units"}, {"measurement": "yield (%)", "setting": "[2]; [7]", "result": 0, "unit": "%"}, {"measurement": "activity (units)", "setting": "[2]; [8]", "result": 0, "unit": "units"}, {"measurement": "yield (%)", "setting": "[2]; [8]", "result": 0, "unit": "%"}, {"measurement": "inhibition", "setting": "[2]", "result": "did not effect significant inhibition"}, {"measurement": "Final activity [%]", "setting": "[1]", "result": 97, "unit": "%"}]}, {"molecule": "CC(C)(COP(=O)(O)OP(=O)(O)OC[C@H]1O[C@@H](n2cnc3c(N)ncnc32)[C@H](O)[C@@H]1OP(=O)(O)O)[C@@H](O)C(=O)NCCC(=O)NCCSC(=O)CC(=O)O", "note": "[Malonyl-coA]", "values": [{"measurement": "activity at 100 µM", "setting": "[1]; read-out: Final activity [%]", "result": 92, "unit": "%"}]}, {"molecule": "CCCCCCCC/C=C\\CCCCCCCC(=O)SCCNC(=O)CCNC(=O)[C@H](O)C(C)(C)COP(=O)(O)OP(=O)(O)OC[C@H]1O[C@@H](n2cnc3c(N)ncnc32)[C@H](O)[C@@H]1OP(=O)(O)O", "note": "[Oleoyl-coA]", "values": [{"measurement": "activity at 24 µM", "setting": "[1]; read-out: Final activity [%]", "result": 108, "unit": "%"}]}, {"molecule": "CCCCCCCCCCCCCCCC(=O)O", "note": "[Palmitic acid]", "values": [{"measurement": "activity at 2 µM", "setting": "[1]; read-out: Final activity [%]", "result": 133, "unit": "%"}, {"measurement": "activity at 15 µM", "setting": "[1]; read-out: Final activity [%]", "result": 135, "unit": "%"}, {"measurement": "activity at 60 µM", "setting": "[1]; read-out: Final activity [%]", "result": 115, "unit": "%"}]}, {"molecule": "CCCCCC/C=C\\CCCCCCCC(=O)O", "note": "[Palmitoleic acid]", "values": [{"measurement": "activity at 20 µM", "setting": "[1]; read-out: Final activity [%]", "result": 116, "unit": "%"}, {"measurement": "activity at 100 µM", "setting": "[1]; read-out: Final activity [%]", "result": 100, "unit": "%"}]}, {"molecule": "CCCCCC/C=C\\CCCCCCCC(=O)SCCNC(=O)CCNC(=O)[C@H](O)C(C)(C)COP(=O)(O)OP(=O)(O)OC[C@H]1O[C@@H](n2cnc3c(N)ncnc32)[C@H](O)[C@@H]1OP(=O)(O)O", "note": "[Palmitoleoyl-coA]", "values": [{"measurement": "activity at 22 µM", "setting": "[1]; read-out: Final activity [%]", "result": 114, "unit": "%"}]}, {"molecule": "CC(C)(CO)[C@@H](O)C(=O)O", "note": "[Pantoate, (R)-pantoate]", "values": [{"measurement": "optimal pantoate concentration", "setting": "[3]; calculated from rate equation with fitted KS and K′S", "result": "470 ± 30", "unit": "µM"}, {"measurement": "K′S", "setting": "[3]; fit of rate equation for uncompetitive substrate inhibition", "result": "5.33 ± 0.34", "unit": "mM"}, {"measurement": "kcat", "setting": "[3]; from Vmax of the uncompetitive substrate inhibition fit", "result": "0.625 ± 0.011", "unit": "s⁻¹"}, {"measurement": "pantoate concentration at which substrate inhibition becomes significant", "setting": "[3]; substrate inhibition of Lotus PS", "result": "≥ 400", "unit": "µM"}]}, {"molecule": "CC(C)(CO)[C@@H](O)C(=O)NCCC(=O)O", "note": "[Pantothenate]", "values": [{"measurement": "activity at 1000 µM", "setting": "[1]; read-out: Final activity [%]", "result": 98, "unit": "%"}]}, {"molecule": "CC1(C)COC(=O)[C@@H]1O", "note": "[Pantoyl-lactone, pantoyl-lactone]", "values": [{"measurement": "activity toward pantoyl-lactone", "setting": "purified E. coli PS", "result": "no activity"}, {"measurement": "activity as substrate in the place of pantoate", "setting": "[2]", "result": "not active as substrates"}, {"measurement": "activity (units)", "setting": "[2]; [6]", "result": 11.53, "unit": "units"}, {"measurement": "yield (%)", "setting": "[2]; [6]", "result": 92, "unit": "%"}, {"measurement": "activity (units)", "setting": "[2]; [7]", "result": "<0.1", "unit": "units"}, {"measurement": "yield (%)", "setting": "[2]; [7]", "result": "<1", "unit": "%"}, {"measurement": "activity (units)", "setting": "[2]; [8]", "result": 0.15, "unit": "units"}, {"measurement": "yield (%)", "setting": "[2]; [8]", "result": 1, "unit": "%"}, {"measurement": "inhibition", "setting": "[2]", "result": "did not effect significant inhibition"}, {"measurement": "Final activity [%]", "setting": "[1]", "result": 92, "unit": "%"}]}, {"molecule": "O=P(O)(O)OP(=O)(O)O", "note": "[Pyrophosphate]", "values": [{"measurement": "Final activity [%]", "setting": "[1]", "result": 78, "unit": "%"}]}, {"molecule": "CC(C)C(=O)C(=O)O", "note": "[a-KIVA]", "values": [{"measurement": "Final activity [%]", "setting": "[1]", "result": 89, "unit": "%"}]}, {"molecule": "B1", "values": [{"measurement": "Km", "setting": "[4]; other: Eadie-Hofstee (EH)", "result": "986 (EH) μM"}, {"measurement": "Vmax", "setting": "[4]; other: Eadie-Hofstee (EH)", "result": "9.51 (EH)"}, {"measurement": "Km", "setting": "[4]; other: Lineweaver-Burk (LB)", "result": "990 (LB) μM"}, {"measurement": "Vmax", "setting": "[4]; other: Lineweaver-Burk (LB)", "result": "9.52 (LB)"}, {"measurement": "kcat", "setting": "[4]; other: Lineweaver-Burk (LB)", "result": 0.54, "unit": "s⁻¹"}, {"measurement": "Km", "setting": "[5]; [9]", "result": "44 (EH) μM"}, {"measurement": "Vmax", "setting": "[5]; [9]", "result": "10.98 (EH)"}, {"measurement": "Km", "setting": "[5]; [10]", "result": "45 (LB) μM"}, {"measurement": "Vmax", "setting": "[5]; [10]", "result": "11.36 (LB)"}, {"measurement": "kcat", "setting": "[5]; [10]", "result": 0.63, "unit": "s⁻¹"}, {"measurement": "Km", "setting": "[5]; [11]", "result": "42 ± 2", "unit": "µM"}, {"measurement": "Vmax", "setting": "[5]; [11]", "result": "11.03±0.19", "unit": "units"}]}]}
